According to patent publication USRE31588E, “Imidazolylmethylthioethyl alkynyl guanidines” (Bristol-Myers Company, priority 1981, dated 1984):
Entries after “also recorded” stand apart in the source; their conditions may differ. Each block holds one molecule with its values, some of them ahead of it.

Assays:
[1] = target: T1, histamine H2-receptors (isolated, spontaneously beating guinea pig right atria) (Cavia porcellus, UniProt P47747); settings: cited from earlier work
[2] = target: T1, histamine H2-receptors (isolated, spontaneously beating guinea pig right atria); assay: Histamine H2-receptor antagonism, isolated guinea pig atria assay; format: cell-based; set-up: The spontaneously beating right atrium was dissected free from other tissues; from tissue; host or cells: isolated, spontaneously beating right atrium of male Hartley guinea pigs; settings: for Histamine ED50 (concentration of histamine which increased contractile rate 50% of maximum) after test compound: test compound 1 × 10^-5 M, 30 minute incubation
Procedure: Subsequent investigations by Hughes and Coret, Proc. Soc. […] Black et al., Agents and Actions, 3, 133 (1973) and Brimblecombe et al., Fed. […] The present comparative studies were carried out using a modification of the procedure reported by Reinhardt et al., Agents and Actions, 4, 217 (1974).
Male Hartley strain guinea pigs (350-450 gm.) were sacrificed by a blow on the head. The heart was excised and placed in a Petri dish of oxygenated (95% O2, 5% CO2) modified Krebs solution (g./liter: NaCl 6.6, KCl 0.35, MgSO4. 7 H2 O 0.295, KH2 PO4 0.162, CaCl2 0.238, NaHCO3 2.1 and dextrose 2.09). The spontaneously beating right atrium was dissected free from other tissues and a silk thread (4-0) attached to each end. The atrium was suspended in a 20 ml. muscle chamber containing oxygenated modified Krebs solution maintained at 32° C. Atrial contractions were recorded isometrically by means of a Grass FT 0.03 force displacement transducer and recordings of contractile force and rate were made with a Beckman RP Dynograph.
A resting tension of 1 g. was applied to the atrium and it was allowed to equilibrate for 1 hour.
Concentration-response curve displacement factors were calculated as follows: [formula] The factor obtained for BL-5641 was then expressed as a ratio of the factor obtained for cimetidine. [formula]

[3] = system: gastric secretion; settings: cited from earlier work
[4] = in vivo, cited from earlier work
[5] = system: H2 receptor; settings: cited from earlier work
[6] = system: gastric acid output; assay: Gastric antisecretory activity in the gastric fistula dog (histamine-induced); format: in vivo, dog (beagle); settings: for Onset of inhibitory effect on gastric acid output: iv
Procedure: Thomas type [Thomas, J. E., Proc. Soc. exp. Biol. Med., 46, 260 (1941)] stainless steel cannulae are inserted into the stomachs of beagle dogs (10-12 kg.) just orad to the pyloric gland area near the greater curvature to provide a chronic gastric fistula. Animals are allowed to recover for at least two months before any testing is done. Dogs are fasted overnight (~18 hours) with water ad lib prior to each experiment. The dogs are placed in a sling and an eight inch inside needle catheter (C. R. Baird, Inc.) with a 2 inch 17 gauge needle is inserted into a leg vein fior purposes of drug administration. Gastric secretions are collected every 15 minutes by gravity drainage from the opened cannula. […] A modification of the procedure described by Grossman and Konturek, Gastroenterology, 66, 517 (1974) was followed. […] Each 15 minute sample of gastric juice is measured to the nearest 0.5 ml. and titratable acidity against 0.02N NaOH (endpoint pH 7.0) is measured with an Autoburet and pH meter (radiometer). The percent inhibition of acid output is calculated as described in the pylorus ligated rat procedure.

[7] = clinical; cited from earlier work
[8] = system: peptic ulcer disease; settings: Gray et al., Lancet 1977; cited from earlier work
[9] = system: gastric acid output; assay: Gastric antisecretory activity in the two hour pylorus ligated (Shay) rat; format: in vivo, rat (male Long Evans); settings: vs cimetidine
From the text: The pyloric ligation procedure in the rat was designed by Shay et al., Gastroenterology, 5, 53 (1945) for the study of perforating gastric ulcers; however, as the method became known, it was also employed as a means of studying rat gastric secretion, Shay et al., Gastroenterology, 26, 906 (1954), Brodie, D. A., Am. J. Dig. […] A modification of this procedure is presently used to evaluate compounds for gastric antisecretory activity.
Male Long Evans rats, 280-300 gm., are used. The animals are placed in individual cages and fasted for 24 hours with free access to water. Under ether anesthesia, the stomach is reached through a midline incision, and a cotton-thread ligature is placed around the pylorus. After wound closure, ether administration is stopped and either BL-5641, cimetidine or vehicle are administered intraperitoneally in a volume of […]. BL-5641 and cimetidine are solubilized with one equivalent of HCl and brought to the proper volume with water. The animals are returned to their cages from which the water bottles have been removed and two hours later are sacrificed with ether. […] Titratable acid output is calculated in microequivalents by multiplying the volume in milliliters by the acid concentration in milliequivalents per liter. The percent inhibition of acid output is calculated as follows [formula]

T1 sequence (P47747 whole entry): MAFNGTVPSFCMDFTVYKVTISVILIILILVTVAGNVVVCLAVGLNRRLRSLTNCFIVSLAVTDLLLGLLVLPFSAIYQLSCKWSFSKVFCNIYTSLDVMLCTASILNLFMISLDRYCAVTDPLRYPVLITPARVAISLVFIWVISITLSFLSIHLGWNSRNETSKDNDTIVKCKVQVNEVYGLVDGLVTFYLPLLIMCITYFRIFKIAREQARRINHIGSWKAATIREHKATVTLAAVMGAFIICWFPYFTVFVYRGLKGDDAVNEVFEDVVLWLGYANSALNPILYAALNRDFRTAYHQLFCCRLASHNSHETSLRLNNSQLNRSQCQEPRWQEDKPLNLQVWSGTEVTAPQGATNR

Compound: NCCc1c[nH]cn1 [Histamine]
Effect on contractile rate of guinea pig right atria [1]: concentration-related increases in the contractile rate
Histamine concentration at which maximal response occurred ([2]; cumulative histamine addition): 30 µM

Compound: CNC(=S)NCCCCc1cnc[nH]1 [Burimamide]
Inhibition of gastric secretion ([3]; animals and man): inhibits gastric secretion in animals and man
Clinical effectiveness as H2 receptor antagonist ([3]; clinical): first clinically effective H2 receptor antagonist
Oral absorption ([4]; po): oral absorption is poor
Mode of antagonism at histamine H2-receptors ([5]; Black et al., Nature 1972): competitive antagonist

Compound: CNC(=NC#N)NCCSCc1[nH]cnc1C [Cimetidine]
Onset of inhibitory effect on gastric acid output [6]: immediate inhibitory effect on gastric acid output
Half-life [4]: relatively short
H2 antagonist potency/effectiveness [5]: as effective an H2 antagonist as metiamide
Agranulocytosis [7]: without producing agranulocytosis
Effectiveness in treatment of peptic ulcer disease [8]: effective therapeutic agent in the treatment of peptic ulcer disease
Histamine ED50 (concentration of histamine which increased contractile rate 50% of maximum) after test compound [2]: 1.39 µg/mL

Compound: CNC(=S)NCCSCc1[nH]cnc1C [Metiamide]
Oral activity ([3]; man): orally active in man
H2 antagonist potency/effectiveness [5]: more potent than burimamide
Agranulocytosis [7]: toxicity (agranulocytosis)

Potency as histamine H2-receptor antagonist ([2]; isolated guinea pig atria, vs cimetidine): more potent than cimetidine
Histamine ED50 (concentration of histamine which increased contractile rate 50% of maximum) after test compound [2]: 12.44 µg/mL
Compound: C#CCN=C(NC#N)NCCSCc1[nH]cnc1C [BL-5641, N-Cyano-N'-{2-[(4-methyl-5-imidazolyl)methylthio]ethyl}-N"-propargylguanidine]
Potency for inhibition of gastric acid output [9]: more potent than cimetidine; also recorded: at least as potent as cimetidine
Duration of activity ([6]; equal doses, vs cimetidine): longer duration of activity than cimetidine
Degree and duration of inhibition ([6]; equimolar doses, vs cimetidine): consistently greater and of longer duration with BL-5641 than with cimetidine
Onset of inhibitory effect on gastric acid output [6]: immediate inhibitory effect on gastric acid output
Potency as inhibitor of gastric secretion ([6]; vs cimetidine): more potent and/or longer acting than cimetidine; also recorded: more potent than cimetidine
